Assay results: publication PMC11771932, “Integrated in silico and in vitro exploration of the anti-VEGFR-2 activities of a semisynthetic xanthine alkaloid inhibiting breast cancer” (PLOS ONE, 2025)
Read-outs that look alike come from different tables or passages of the source.

Assays:
Rats = conditions: structural similar compounds of the TOPKAT report; ref NIIRDN 6;688;82, 85ARAE 4;118;76/77, DRFUD4 2;393;77, YRTMA6 9;11;78, FMCHA2 -;C149;89, ARZNAD 30;2023;80; cited from earlier work
Rat [1] = conditions: cited from earlier work
Rat [2] = conditions: structural similar compounds of the TOPKAT report; ref NCI/NTP TR-358, NCI/NTP TR-138, NCI/NTP TR-336; cited from earlier work
human VEGFR-2 = molecular target: T1, human VEGFR-2 (Homo sapiens, UniProt P35968); assay: In vitro VEGFR-2 inhibition (Human VEGFR-2 ELISA kit); type: biochemical
T1 construct: MCF- 7 cell line; endogenous in cells; host or cells: MCF-7
T1 sequence (P35968 20-1356): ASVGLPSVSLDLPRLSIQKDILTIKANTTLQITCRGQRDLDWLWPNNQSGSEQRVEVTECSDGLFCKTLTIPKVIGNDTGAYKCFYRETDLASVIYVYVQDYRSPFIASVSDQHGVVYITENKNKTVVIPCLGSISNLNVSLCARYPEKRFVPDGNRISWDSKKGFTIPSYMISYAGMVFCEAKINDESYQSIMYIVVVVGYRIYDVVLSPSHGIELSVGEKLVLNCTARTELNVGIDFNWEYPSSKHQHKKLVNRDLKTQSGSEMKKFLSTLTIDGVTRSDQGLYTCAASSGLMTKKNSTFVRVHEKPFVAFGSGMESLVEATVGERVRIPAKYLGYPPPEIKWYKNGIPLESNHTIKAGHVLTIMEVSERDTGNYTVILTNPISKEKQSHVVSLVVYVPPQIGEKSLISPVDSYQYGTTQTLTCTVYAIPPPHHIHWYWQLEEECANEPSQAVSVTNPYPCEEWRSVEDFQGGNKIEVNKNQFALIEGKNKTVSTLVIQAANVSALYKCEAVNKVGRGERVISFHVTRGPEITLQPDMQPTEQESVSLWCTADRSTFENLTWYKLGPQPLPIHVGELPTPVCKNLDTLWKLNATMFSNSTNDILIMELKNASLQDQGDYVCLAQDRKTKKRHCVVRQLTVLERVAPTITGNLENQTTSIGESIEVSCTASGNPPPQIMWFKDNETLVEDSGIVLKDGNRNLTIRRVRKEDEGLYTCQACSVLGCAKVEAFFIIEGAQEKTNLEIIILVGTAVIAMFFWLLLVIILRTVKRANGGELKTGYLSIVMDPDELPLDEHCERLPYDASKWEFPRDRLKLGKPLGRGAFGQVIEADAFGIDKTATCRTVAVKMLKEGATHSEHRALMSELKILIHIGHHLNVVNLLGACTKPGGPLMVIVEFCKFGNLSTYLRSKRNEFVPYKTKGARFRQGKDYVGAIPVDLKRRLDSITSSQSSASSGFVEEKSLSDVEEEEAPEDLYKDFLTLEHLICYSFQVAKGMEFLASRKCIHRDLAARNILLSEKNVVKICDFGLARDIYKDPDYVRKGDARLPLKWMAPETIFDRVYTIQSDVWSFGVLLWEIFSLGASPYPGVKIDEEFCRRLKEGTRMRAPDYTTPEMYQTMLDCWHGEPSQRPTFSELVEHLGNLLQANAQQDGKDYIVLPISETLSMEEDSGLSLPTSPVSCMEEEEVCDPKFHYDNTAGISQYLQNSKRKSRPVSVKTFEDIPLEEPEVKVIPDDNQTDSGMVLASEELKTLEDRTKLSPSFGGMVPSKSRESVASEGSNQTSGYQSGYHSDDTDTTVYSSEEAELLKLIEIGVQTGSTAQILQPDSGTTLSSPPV

MCF7 cell line = assay: In vitro cytotoxicity, MCF7; type: cell-based
Experimental: (§1) The potential of T-1-NBAB as an anticancer agent has been highlighted through both in silico and in vitro studies, primarily due to its anti-VEGFR-2 properties. To further investigate T-1-NBAB’s cytotoxicity, it was tested against breast carcinoma epithelial cancer cell lines MCF7 and T47D.
(§2) The cytotoxic potential of T-1-NBAB against MCF7 and T47D cell lines was accomplished by MTT procedure.
(§3) Mammalian cell lines culture
(§4) MCF7 and T47D cell lines were cultured on DMEM media. The cultured media were supplemented with 200 mM L-glutamine, 10.0% fetal bovine serum (Lonza), and 1.0% penicillin/streptomycin. Cells were seeded into 25.0 cm tissue culture flasks and incubated at 37◦C in a 5.0% CO2 incubator for 24 h or till confluency.
(§5) The safety profiles of the tested compounds were checked on one non-cancerous cell line (vero) […]
(§6) A portion of 100.0 µl of 6×10^4 cell/ml cells was seeded into each well of a 96-well plate and then the plates were incubated at 37 °C in a humidified 5.0% CO2 incubator for 24 h. […]
(§7) The inoculated plates were incubated at the same growth conditions for another 24 h. At the end of incubation, cellular viability was assessed using MTS assay kit (Promega) according to […]
(§8) Anticancer activities of the tested compounds against MCF7 and T47D cell lines were quantified using MTS assay kit (Promega) as described by the Manufacturer. […]

T47D cell line = assay: In vitro cytotoxicity, T47D; type: cell-based
Experimental: as §1, §2, §3, §4, §5, §6, §7, §8

[3] = tested on: Vero (normal epithelial) cell lines; assay: Safety assay on non-cancerous Vero cells; type: cell-based; conditions: Chlorocebus sabaeus, read-out: IC50 against Vero
Experimental: as §1
The cytotoxic potential of T-1-NBAB against non-cancerous (Vero) cell lines was accomplished by MTT procedure.
as §3, §4, §5
A portion of 100.0 µl of 6×10^4 cell/ml cells was seeded into each well of a 96-well plate and then the plates were incubated at 37 °C in a humidified 5.0% CO2 incubator for 24 h. At the end of incubation period, the exhausted medium was replaced with 100.0 µl of different concentrations of the designated treatment (prepared in RPMI medium starting from 1.0 mM).
as §7

MCF7 cells [4] = assay: Apoptosis assay, flow cytometry, Annexin V and PI double staining; type: cell-based
Experimental: The T-1-NBAB’s effect as an apoptotic agent was assessed via flow cytometry analysis, on MCF7 cells using Annexin V and PI double staining.
T-1-NBAB’s apoptotic potentials and effect on MCF7 cell cycle were accomplished by flow cytometry analysis technique.
In-vitro anticancer activity
Anticancer activities of the tested compounds against MCF7 and T47D cell lines were quantified using MTS assay kit (Promega) as described by the Manufacturer.
The selectivity index values of the tested compounds on cancer cells were calculated as described by Koch et al., with slight modifications; SI=IC50nc/IC50cc, where IC50nc: the IC50 value of the tested compound on normal cells and IC50cc: IC50 of the tested compound on cancer cell […]
In vitro EGFR kinase assay
The synthesized compound was estimated for their in vitro inhibition on human VEGFR-2 in MCF- 7 cell line; using ELISA kit. Firstly, a plate was used for the assay had been coated by an […]
2 inhibitor. Both standard and sample were added to the wells and incubated overnight at 4 ◦C, then washed. The biotinylated antibody was supplemented and further incubated for 1 h at room temperature. The unreacted, liberated antibody was then washed; followed by addition of HRP-conjugated streptavidin and incubated for 45 min at room temperature. Wells were washed and a TMB substrate solution was added and kept at room temperature for 30 min. Finally, the stop solution was added, and the intensity of the color produced was measured at 450 nm.
Concentration- inhibition response curve was established by GraphPad Prism 5.0. The IC 50 value was calculated as the concentration at which 50% of the cells could survive in comparison to […]
Flow cytometry analysis for apoptosis
Flow cytometry cell apoptosis analysis was used to investigate the apoptotic effect of the synthesized compound. […] The stained cells were measured using Epics XL-MCL™ Flow Cytometer and analyzed […]

MCF7 cells [5] = assay: Wound healing and migration assay; type: cell-based
Experimental: The wound healing assay, a simple and cost-effective procedure, can assess the mobility and repair capacity of cancerous cells. In this method, a scratch is created on a layer of cancer cells, and the initial width is recorded. The healing of the scratch was observed periodically for both untreated and treated cells. Throughout the study, images of the scratched areas from both groups were compared at the 0-hour and 48-hour time points.
Wound healing assay was accomplished for T-1-NBAB utilizing MCF7 cell lines. […]
Wound healing and migration assay
The wound healing assay allows the researcher to study cell migration and cell interactions. In […]
some cases also single cell migration can be analyzed and this assay can be imaged […]
1. Cells were seeded in 6 multi-well plates and cultured until confluent. It is important that all the cultures are confluent at the start of the experiment.
2. (yellow) pipette tip was used to make a straight scratch, simulating a wound. Often we make a scratch keeping the pipette tip under an angle of around 30 degrees to keep the scratch width limited. This allows imaging of both wound edges using the 10x objective.
The following equations are applied to calculate the healing and migration ratio Rat of migration (RM) = (wi – wf ) / t
Wi =average of intial wound width um
Wf= average of final wound width um
T = time span of the assay in hours
Percentage of wound clouser % ={ (At=0 – At=∆t ) / At=0 } 100 […]
At=∆t = wound area after n hours
Area difference % = (Ai – Af )

VEGFR-2 = tested on: VEGFR-2; set-up: method as in PMID 35493991; conditions: read-out: VEGFR-2 inhibition IC50; cited from earlier work
Mouse = tested on: Mouse; set-up: method as in earlier work; conditions: structural similar compounds of the TOPKAT report; ref CPDB; cited from earlier work
[6] = structural similar compounds of the TOPKAT report, ref CPDB

SMILES: COC(=O)Nc1nc2cc(C(=O)c3ccc(F)cc3)ccc2[nH]1 [FLUBENDAZOLE]
- Rat oral LD50, Actual Endpoint (-log C) (Rats): 2.088 -log C

SMILES: CC(C)n1c(/C=C/C(O)CC(O)CC(=O)O)c(-c2ccc(F)cc2)c2ccccc21 (stereo not drawn) [Fluvastatin, reference compound]
- Carcinogenic potency TD50 rat, Actual Endpoint (-log C) (Rat [1]): 3.517 -log C

SMILES: CC1(C)S[C@@H]2[C@H](NC(=O)COc3ccccc3)C(=O)N2[C@H]1C(=O)O [[…]]
- Rat maximum tolerated dose gavage, Actual Endpoint (-log C) (Rat [2]): 2.545 -log C

SMILES: Cn1cnc2c1c(=O)n(CC(=O)Nc1ccc(C(=O)NCc3ccccc3)cc1)c(=O)n2C [T-1-NBAB]
- IC50 (human VEGFR-2): 0.115 µM
- IC50 (MCF7 cell line; Homo sapiens, breast cancer cell line MCF7, read-out: IC50 against MCF7): 16.9 µM
- Selectivity index (SI) against MCF7 (MCF7 cell line; IC50 normal cells (Vero) / IC50 MCF7): 4.1
- IC50 (T47D cell line; Homo sapiens, breast cancer cell line T47D, read-out: IC50 against T47D): 61.2 µM
- Selectivity index (SI) against T47D (T47D cell line; IC50 normal cells (Vero) / IC50 T47D): 1.1
- IC50 [3]: 68.4 µM
- Apoptosis Late (MCF7 cells [4]; control 0.12): 2.88%
- Apoptosis Early (MCF7 cells [4]; control 0.72): 3.51%
- Necrosis (MCF7 cells [4]; control 2.21): 9.37%
- area difference (MCF7 cells [5]; 0 h vs 48 h, control 659.8333): 112 µm²
- RM (rate of migration) (MCF7 cells [5]; 48 h, control 13.74681): 2.322 µm/h
- Wound closure % (MCF7 cells [5]; 48 h, control 65.96135): 12.16%
- Scratch area at 0h (MCF7 cells [5]; mean of five values): 917
- Scratch area at 48 h (MCF7 cells [5]; mean of five values): 805.5
- Scratch width at 0h (MCF7 cells [5]; mean of five values): 916.0155
- Scratch width at 48 h (MCF7 cells [5]; mean of five values): 804.5532
- Reduction of scratch width after 48 hours (MCF7 cells [5]; untreated control closed 65.9%): 12%

SMILES: Cc1nc2ccccc2n(CC(=O)Nc2ccc(C(=O)Nc3cccc(Cl)c3)cc2)c1=O [compound V]
- IC50 (VEGFR-2): 0.0027 µM

SMILES: Cc1noc(NS(=O)(=O)c2ccc(N)cc2)c1C [SULFISOOXAZOLE]
- Rat maximum tolerated dose gavage, Actual Endpoint (-log C) (Rat [2]): 2.825 -log C

SMILES: Cc1cccc(Nc2cc(Cl)nc(SCC(=O)NCCO)n2)c1C [4-Chloro-6-(2,3-xylidino)-2-pyrimidinylthio(N-b-hydroxyethyl) acetamide]
- Carcinogenic potency TD50 mouse, Actual Endpoint (-log C) (Mouse): 3.915 -log C

SMILES: CC(C)(Oc1ccc(CCNC(=O)c2ccc(Cl)cc2)cc1)C(=O)O [BEZAFIBRATE]
- Rat oral LD50, Actual Endpoint (-log C) (Rats): 1.946 -log C

SMILES: NS(=O)(=O)c1cc(C(=O)O)cc(N2CCCC2)c1Oc1ccccc1 [PIRETANIDE]
- Rat oral LD50, Actual Endpoint (-log C) (Rats): 1.811 -log C

SMILES: O=[N+]([O-])c1ccc(-c2nc(N(CCO)CCO)c3ccccc3n2)s1 [4-Bis(2-hydroxyethyl)amino-2-(5-nitro-2-thienyl)quinazoline]
- Carcinogenic potency TD50 rat, Actual Endpoint (-log C) (Rat [1]; [6]): 5.06 -log C

SMILES: COC(=O)Nc1nc2ccccc2n1C(=O)NCCCCCC#N [CARBAMIC ACID; [1-[(5-CYANOPENTYL)CARBAMOYL]BENZIMIDAZOL-2-YL]-; METHYL ESTER]
- Rat oral LD50, Actual Endpoint (-log C) (Rats): 2.12 -log C

SMILES: C[C@@H]1Cc2c(Cl)cc(C(=O)N[C@@H](Cc3ccccc3)C(=O)O)c(O)c2C(=O)O1 [OCHRATOXIN]
- Rat maximum tolerated dose gavage, Actual Endpoint (-log C) (Rat [2]): 6.284 -log C

SMILES: C[C@@H]1Cc2c(Cl)cc(C(=O)N[C@@H](Cc3ccccc3)C(=O)O)c(O)c2C(=O)O1 [Ochratoxin A]
- Carcinogenic potency TD50 mouse, Actual Endpoint (-log C) (Mouse): 4.799 -log C
- Carcinogenic potency TD50 rat, Actual Endpoint (-log C) (Rat [1]; [6]): 6.473 -log C
